Measured values reported in US9095537B2, “Therapy of cancer based on targeting adaptive, innate and/or regulatory component of the immune response” (priority 2006, dated 2015).
Like-named read-outs stand apart in the source and are kept apart here.

Legend:
TC-1 cells [1] = type: in vivo, C57BL/6 mice; conditions: for survival percentage: TLR ligand given i.v. with 50 ug CyaA-E7 on day 25, pU and CpGs complexed with DOTAP, survival on day 100; for effect on tumor growth of TLR ligand alone: TLR ligand alone without CyaA-E7, day 25; for tumor growth after CTX alone: CTX 2.5 mg i.p. alone, day 24; for mice that totally eradicated their tumors: low dose CTX (2.5 mg i.p.) day 24, 24 h before 50 ug CyaA-E7; for enhancement of the effect of CyaA-E7 by DOX: DOX day 24, intra-tumorally or intravenously, CyaA-E7 day 25; for increase in tumor regression: TLR ligand given with CyaA-E7 on day 25, versus CyaA-E7 alone
Procedure: (§1) Specific pathogen-free 5-week-old female C57BL/6 mice were purchased from Charles River (L'Arbresle, France) and were kept in the Pasteur Institute animal facilities under pathogen-free conditions with water and food ad libitum. C57BL/6-RAG1^−/− mice were obtained from the Jackson Laboratory, USA. Experiments involving animals were conducted according to the institutional guidelines for animal care.
TC-1 cells expressing HPV16-E6 and HPV16-E7 proteins derived from primary mouse lung epithelial cells were obtained from the American Type Culture Collection (LGC Promochem, Molsheim, France) (14). EL4-E7 cells, a mouse lymphoma expressing HPV16-E7 (15). Cells were maintained in RPMI 1640 with GlutaMAX supplemented with 10% heat-inactivated fetal calf serum, 100 units/ml penicillin, 100 μg/ml streptomycin, 0.4 mg/ml geneticin and 5×10^−5 mol/12-mercaptoethanol (Life Technologies, Cergy-Pontoise, France).
(§2) Tumor cells lines (5×10^5 TC-1 cells or 4×10^6 EL4-E7 cells) were inoculated into the shaved left back of C57BL/6 mice in 200 μl volume of PBS. Tumor size, presented as the average of two perpendicular diameters (millimeters), was measured at regular intervals.
CpG ODNs (Type A, CpG 2216: 5′-[…]-3′ (SEQ ID NO: 6); Type B, CpG 1826: 5′-[…]-3′ (SEQ ID NO: 7)) were synthesized by Proligo (Paris, France). Boldface nucleotides correspond to phosphorothioate backbone. Polyuridine (pU) was purchased from Sigma (Steinheim, Germany), R848 from PharmaTech (Shanghai, China) and polyinosinic-polycytidylic acid (PIC) from Invivogen (San Diego, Calif., USA). Thirty μg of CpG ODNs or pU were diluted in 50 μl of Optimen medium (Gibco, Grand Island, N.Y., USA) and mixed with 60 μg of DOTAP (Roche, Mannheim, Germany) diluted in 100 μl of Optimen. The rest of the reagents were diluted in PBS before injection. Cyclophosphamide (CTX) (Sigma, Steinheim, Germany) and doxorubicin (DOX) (Calbiochem, La Jolla, Calif., USA) were diluted respectively in PBS and in sterile water before injection. The different antigenic formulations and adjuvants were injected simultaneously except chemotherapeutic agents that were given 24 h before vaccine. Intravenous administrations were performed by retroorbital injection in a volume of 200 μl, intratumoral administrations were done by injection in a volume of 50 μl and subcutaneous administration were performed in 200 μl.
Tumor growth data were analyzed by non-linear mixed effect models using Monolix software (http://www.math.u-psud.fr/˜lavielle/monolix/). Mean diameters of tumors over time were fitted using the model described in (17) and treatments were compared using the Likelihood Ratio test. Kaplan-Meier plots were used to analyzed survival, and a log rank test was used to examine statistical significance of differences in the survival curves using Prism software (GraphPad Software, Inc. San Diego, USA). Data from in vivo CTL and tetramer staining were compared by ANOVA followed by Dunnett posttest. p values less than 0.05 were considered to be statistically significant.

[2] = tested on: E749-57 peptide-pulsed splenocytes; test: In vivo killing assay (in vivo CTL); set-up: species or system C57BL/6 mice; conditions: CTX 24 h before CyaA-E7, tumor-bearing mice day 25
Procedure: FIG. 8. Analysis of tumor specific immune response in control and tumor-bearing mice after different treatments. […] Twenty-five days later, control and tumor-bearing mice were injected with either 50 μg of control CyaA or of CyaA-E7, with PBS or with 30 μg of CpG-B or pU/DOTAP, 25 μg of PIC, 50 μg of R848, 2.5 mg of CTX (24 h before) or with CTX and CpG-B/DOTAP. Percentage of CD8^+ tetramer^+ cells in control (A) and in tumor-bearing mice (B). At day 7 after treatment, mice were sacrificed and the percentage of tetramer positive cells was analyzed by flow cytometry. In vivo CTL in control (C) and in tumor-bearing mice (D). […] Twenty-four hours later, spleens were removed and single-cell suspensions were analyzed by flow cytometry to determine the ratio of CFSE^high to CFSE^low cells. […] In vivo cytolytic activity was low but detected (E and F).
Naïve spleen cells were pulsed for 30 min with 9 μM E749-57 peptide at 37° C. […] Twenty-four hours later, spleens were removed and single-cells suspensions were analyzed by flow cytometry to determine the ratio of CFSE^high to CFSE^low cells. The percentage of specific lysis was calculated as follow: percent-specific lysis=100−(100×(% CFSE^highimmunized/% CFSE^low immunized)/(% CFSE^high control/% CFSE^low control)).

[3] = tested on: T regulatory cells, myeloid suppressor cells, tumor-specific CD8+ T cells and NK cells; test: Flow cytometric analysis of immune cells in spleen, draining lymph nodes and tumor after tritherapy; type: in vivo, C57BL/6 mice
Procedure: FIG. 9. Changes in immune cells after tritherapy on day 25. […] Groups of mice were sacrificed before treatment (day 0), 24 hour after CTX alone (day 1) or on days 4, 7 or 11 after tritherapy administration. Spleen, tumor draining lymph nodes and tumor were excised, ground to prepare the cell suspensions, stained and analyzed by flow cytometry. Pooled data of two experiments are shown (n=4-6 mice). Bars represent mean values and the error bars correspond to standard error of the mean. *<0.05**<0.01. A) Percentage of CD4^+ cells that express CD25 and FoxP3. B) Percentage of CD4^+ cells that are CD25^− and FoxP3^+. C) Percentage of CD4^+ cells that express FoxP3. D) Percentage of CD8^+ cells that are tetramer^+ and CD44^+. E) Percentage of CD11c^+ cells. F) Percentage of CD11b^+ cells. G) Percentage of GR1^+ cells. H) Percentage of CD11b^+GR1^+ positive cells.
FIG. 11. Phenotype of myeloid cells induced by tritherapy and by tumor growth. […] Tritherapy treated mice received on day 24, 2.5 mg CTX i.p and 24 h later, 50 μg CyaA-E7 and 30 μg CpG-B/DOTAP. PBS treated mice received 200 μl of PBS on day 25. […] Spleens were excised, ground to prepare the cell suspensions, stained and analyzed by flow cytometry. […]
FACScalibur (Becton Dickinson, Franklin Lakes, N.J., USA) was used for flow cytometry and events were analyzed with CELLQuest software (Becton Dickinson, Franklin Lakes, N.J., USA).

TC-1 cells [4] = conditions: CTX 2.5 mg i.p. day 24; log-rank p=0.22 vs PBS
Procedure: as §1, §2

With 5′-GGGGGACGATCGTCGGGGGG-3′ [CpG-A] as the compound, how does the survival percentage (TC-1 cells [1]) read?
The survival percentage was 58%.

5′-TCCATGACGTTCCTGACGTT-3′ [CpG-B] was tested. Which “effect on tumor growth of TLR ligand alone” value (TC-1 cells [1]) did it give?
Its value is “none of these TLR ligands administered alone had any effect on the tumor growth”.

And the survival percentage (TC-1 cells [1])?
The survival percentage was 50%.

Which results are given for `O=P1(N(CCCl)CCCl)NCCCO1` (centres unmarked) [CTX, Cyclophosphamide]?
immune response induced by CyaA-E7 [2]: did not enhance the immune response induced by CyaA-E7; percentage of CD25+FoxP3+/CD4+ in tumor-infiltrated lymphocytes ([3]; four days after administration of cyclophosphamide, from around 50%): below 30%; lymphodepletion ([3]; spleen and lymph node, tumor-bearing mice, CTX 2.5 mg i.p. day 24): transient lymphodepletion in spleen and lymph node that reverted by day 7; antitumor efficacy of combined CTX and CyaA-E7 at higher CTX dose (TC-1 cells [1]; 300 mg/kg versus 100 mg/kg CTX i.p. day 24, CyaA-E7 day 25, log-rank p=0.95): not improved; tumor growth after CTX alone (TC-1 cells [1]): significantly delayed tumor growth but this effect was transient and was followed by tumor relapse; tumor growth after CTX alone (TC-1 cells [1]; listed as cyclophosphamide): could transiently control tumor growth but was not able to induce the complete eradication; tumor growth after CTX plus CyaA-E7 (TC-1 cells [1]; low dose CTX 24 h before CyaA-E7, day 24/25): delayed growth of all tumors; mice that totally eradicated their tumors (TC-1 cells [1]): 58%; mice that totally eradicated their tumors (TC-1 cells [1]; listed as cyclophosphamide): around 60%; tumor growth delay by CTX alone in RAG1-/- mice (TC-1 cells [4]): not observed

Which “enhancement of the effect of CyaA-E7 by DOX” value (TC-1 cells [1]) does the source give for `COc1cccc2c1C(=O)c1c(O)c3c(c(O)c1C2=O)C[C@@](O)(C(=O)CO)C[C@@H]3O[C@H]1C[C@H](N)[C@H](O)[C@H](C)O1` [DOX, Doxorubicin] here?
Its value is “did not enhance the effect of CyaA-E7”.

What about the “enhancement of the effect of CyaA-E7 by DOX” value (TC-1 cells [1]; listed as doxorubicin) of the same compound?
The value was “had no effect”.

Which results are given for polyinosinic-polycytidylic acid [PIC]?
effect on tumor growth of TLR ligand alone (TC-1 cells [1]): none of these TLR ligands administered alone had any effect on the tumor growth; survival percentage (TC-1 cells [1]): 41%; increase in tumor regression (TC-1 cells [1]): significant increase in tumor regression

What does the source list for polyuridine [pU]?
survival percentage (TC-1 cells [1]): 41%; increase in tumor regression (TC-1 cells [1]): significant increase in tumor regression
